Results: patent US20230134986A1, “GLUCOSE TRIPTOLIDE CONJUGATES AND USES THEREOF” (The Johns Hopkins University, priority 2020, published 2023)
Like-named read-outs stand apart in the source and are kept apart here.

Tests used:
[1] = test system: T7115 (C342T XPB knock-in HEK293T cells); test: Proliferation of XPB C342T knock-in cell line T7115 ([3H]-thymidine incorporation); format: cell-based, human; details: C342T XPB knock-in versus isogenic WT 293T
Source text: (§1) Cells and culture conditions. Primary astrocytes (Lonza, Walkersville, Md.; ABM™ Basal Media with AGM™ SingleQuots™ Supplement Pack), fibroblast (ATCC; Fibroblast Basal Medium (ATCC© PCS-201-030™) with Fibroblast Growth Kit-Serum-free (ATCC© PCS-201-040™)), airway epithelial cell (ATCC; Airway Epithelial Cell Basal Medium (ATCC© PCS-300-030™) with Bronchial Epithelial Cell Growth Kit (ATCC© PCS-300-040™)), renal proximal tubule (ATCC; Renal Epithelial Cell Basal Medium (ATCC© PCS-400-030™) with Renal Epithelial Cell Growth Kit (ATCC© PCS-400-040™)), prostate epithelial cell (Lonza; PrEGM™ BulletKit™) and mammary epithelial cell (Lonza; MEBM™ BulletKit™) were kept in a humidified incubator at 37° C. adjusted to 5% CO2. […]

[2] = test system: RPB1 in C342T XPB mutant cell line; test: RPB1 degradation in C342T XPB knock-in cells, western blot; format: cell-based, human; details: XPB C342T cells, 0.1 mM triptolide (so in the source); 0.1 μM)
Source text: as §1
(§2) Western blot analysis. […] Antibody-protein complexes were detected using enhanced chemiluminescence (ECL) immunoblotting detection reagent (EMD Millipore).

[3] = target: T1, TFIIH (Homo sapiens, UniProt P19447); test: DNA-dependent ATPase activity assay of TFIIH; format: biochemical; details: 200 nM triptolide
T1 construct: made in house
Method: ATPase activity assay. The TFIIH complex was purified and its DNA-dependent ATPase assay was performed as previously described (Titov et al. (2011) Nat. Chem. Biol. 7:182-88). Briefly, a 10-μl reaction mixture contained 20 mM Tris (pH 7.9), 4 mM MgCl2, 1 μM of ATP, 0.1 μCi [^γ-^32P]ATP (3000 Ci/mmol), 100 μg/ml BSA, 100 nM RNA Polymerase II promoter positive control DNA, 1 nM TFIIH and indicated concentrations of triptolide or its analogs. The reactions were started by either addition of TFIIH for 2 hr and stopped by addition of 2 μl of 0.5 M EDTA. An aliquot of 1 μl reaction mixture was spotted on PEI-cellulose (sigma) and the chromatogram was developed with 0.5 M LiCi and 1 M HCOOH. The percent of ATP hydrolysis was quantified using a Typhoon FLA 9500 Variable Imager (GE Healthcare).

[4] = test system: HeLa; test: HeLa proliferation under hypoxia ([3H]-thymidine incorporation); format: cell-based, human; details: 1% O2, 48 h post treatment
[5] = test system: PC3 cells; test: PC3 proliferation under hypoxia or normoxia ([3H]-thymidine incorporation); format: cell-based, human; details: for IC50: Homo sapiens, PC-3, 48 h, 48 h post treatment, read-out: IC50
Method: (§3) Proliferation and viability assays. [^3H]-thymidine incorporation. HEK293T cells (10,000 cells/well) were seeded into 96-well plates then cultured in DMEM plus 10% FBS and 1% penicillin/streptomycin at 37° C. with 5% CO2 overnight. Drugs were added at indicated concentrations and incubation was continued for an additional 24 h. For hypoxia, PC3 (5,000 cells/well) were exposed to 1% O2 (Airgas) in a humidified hypoxia chamber (Billups-Rothenberg) in 37° C. for 48 h prior to drug exposure for 48 h. Treated cells were then pulsed using an aliquot of 1 μCi of [^3H]-thymidine (Perkin Elmer) per well for an additional 6 h. Radiolabelled cells were harvested onto a printed Filtermat A glass fiber filter (Perkin Elmer) using a Tomtec Harvester 96 Mach III M. Betaplate Scint (Perkin Elmer) scintillation fluid was added to radiolabelled filters followed by scintillation counting on Microbeta2 LumiJET Microplate Counter (Perkin Elmer).

[6] = test system: HepG2; test: HepG2 proliferation under hypoxia ([3H]-thymidine incorporation); format: cell-based, human; details: HepG2, 1% O2, 48 h post treatment
[7] = test system: MDA MB231 cells; test: MDA MB231 proliferation under hypoxia ([3H]-thymidine incorporation); format: cell-based, human; details: MDA MB231, 1% O2, 48 h post treatment
[8] = test system: Rpb1 in 293T WT cells; test: RPB1 degradation in 293T WT cells, western blot; format: cell-based, human; details: 0.1 mM triptolide (so in the source); 0.1 μM)
Source text: as §1, §2

[9] = test system: HEK 293T cells; test: HEK293T cell proliferation assay ([3H]-thymidine incorporation); format: cell-based, human; details: Homo sapiens; anti-proliferative activity, HEK 293T cells, 24 h drug exposure; read-out: IC50 ± SEM
Source text: Cells and culture conditions. Primary astrocytes (Lonza, Walkersville, Md.; ABM™ Basal Media with AGM™ SingleQuots™ Supplement Pack), fibroblast (ATCC; Fibroblast Basal Medium (ATCC© PCS-201-030™) with Fibroblast Growth Kit-Serum-free (ATCC© PCS-201-040™)), airway epithelial cell (ATCC; Airway Epithelial Cell Basal Medium (ATCC© PCS-300-030™) with Bronchial Epithelial Cell Growth Kit (ATCC© PCS-300-040™)), renal proximal tubule (ATCC; Renal Epithelial Cell Basal Medium (ATCC© PCS-400-030™) with Renal Epithelial Cell Growth Kit (ATCC© PCS-400-040™)), prostate epithelial cell (Lonza; PrEGM™ BulletKit™) and mammary epithelial cell (Lonza; MEBM™ BulletKit™) were kept in a humidified incubator at 37° C. adjusted to 5% CO2. Prostate (PC3, LNCaP, DU-145), breast (MDA-MB-231, MDA-MB-453, SK-BR-3), head and neck (A253, Detroit 562, SCC-25), melanoma (SK-Mel-3, SK-Mel-1, RPMI-7951), pancreatic (CfPAC-1, BxPC3, SW1990), lung (A549, NCI-H1299, NCI-H1437) and liver (SNU-475, SK-HEP-1, SNU-387) cancer cell lines were obtained from ATCC and cultured in their respective media (prostate cells: RPMI-1640, MDA-MB-231: RPMI-1640, MDA-MB-453: Leibovitz's L-15, SK-BR-3: McCoy's 5a, A253: McCoy's 5a, Detroit 562: EMEM, SCC-25: DMEM, SK-Mel-3: McCoy's 5a, SK-Mel-1: EMEM, RPMI-7951: EMEM), CfPAC-1: IMDM, BxPC3: RPMI-1640, SW1990: Leibovitz's L-15), A549: F-12K, NCI-H1299: RPMI-1640, NCI-H1437: RPMI-1640, SNU-475: RPMI-1640, SK-HEP-1: EMEM, SNU-387: RPMI-1640. All media were supplemented with 10% (vol/vol) filtered fetal bovine serum (FBS, Invitrogen, Carlsbad, Calif.), 1% penicillin/streptomycin (Invitrogen) and maintained in a humidified incubator at 37° C. with 5% CO2 except for MDA-MB-453 and SW1990 grown at 37° C. without CO2 control. Wild type (ATCC) and C342T XPB knock-in cells (named T7115) of Human Embryonic Kidney 293T (HEK293T), HeLa (ATCC) were cultured in DMEM (GIBCO) with 10% (vol/vol) filtered fetal bovine serum (FBS, Invitrogen, Carlsbad, Calif.), 1% penicillin/streptomycin (Invitrogen).
as §3

[10] = lethal case dosed with 18 mg/m2 F60008; cited from earlier work
[11] = test system: MCF-7; test: MCF-7 proliferation under hypoxia ([3H]-thymidine incorporation); format: cell-based, human; details: MCF-7, 1% O2, 48 h post treatment

## CC(C)[C@]12O[C@H]1[C@@H]1O[C@]13[C@]1(O[C@H]1C[C@H]1C4=C(CC[C@@]13C)C(=O)OC4)[C@@H]2O [TPL, (1S,2S,4S,5S,7R,8R,9S,11S,13 S)-8-hydroxy-1-methyl-7-propan-2-yl-3,6,10,16 tetraoxaheptacyclo[11.7.0.02,4.02,9.05,7.09,11.014,18] icos-14(18)-en-17-one, reference compound]
[1]
  sensitivity of T7115 mutant line (proliferation): resistant
[2]
  Rpb1 level: Rpb1 levels resemble DMSO control
[3]
  inhibition of ATPase activity of TFIIH: effectively suppresses activity
[3]; listed as triptolide
  inhibition of ATPase activity of TFIIH: nearly completely inhibited
[4]
  effect of hypoxia on anti-proliferative effect: modest anti-proliferative effect
[5]; PC3, hypoxic conditions (1% O2)
  IC50: 1.5 nM
[5]; PC3, normoxic conditions (20% O2)
  IC50: 4.5 nM
[5]; PC3, hypoxia versus normoxia
  fold enhancement of anti-proliferative effect during hypoxia: three-fold
[6]
  effect of hypoxia on anti-proliferative effect: showed resistance upon hypoxia
[7]
  effect of hypoxia on anti-proliferative effect: modest anti-proliferative effect
[8]
  degradation of Rpb1: leads to the degradation of the Rpb1 subunit
[9]
  IC50: 5.6 nM
[10]
  Maximum serum levels: 58.5 ng/mL
  Maximum serum levels (molar): ~0.16 mM
[11]
  effect of hypoxia on anti-proliferative effect: modest anti-proliferative effect
